Measurements from PMC8482815, “Targeting Host Glycolysis as a Strategy for Antimalarial Development” (Frontiers in Cellular and Infection Microbiology, 2021).
“Also recorded” adds a separate entry of the source. Like-named read-outs stand apart in the source and are kept apart here.

Experiments:
[1] = system: P. falciparum strain 3D7; experiment: Plasmodium falciparum growth inhibition assay (Picogreen DNA content, three-day incubation); type: cell-based; conditions: for S.I. + pyruvate (Supplemental Table 4): MetHb EC50 / parasite EC50, with pyruvate; for S.I. - pyruvate (Supplemental Table 4): MetHb EC50 / parasite EC50, without pyruvate; for EC50: Plasmodium falciparum; for S.I. Fold Change (Supplemental Table 4): change in S.I. with versus without pyruvate; for T.I. Fold change: change in T.I. with versus without 1mM pyruvate; for T.I. + pyruvate / T.I. - pyruvate: therapeutic index = [EC50 for MetHb formation]/[EC50 for parasite growth inhibition]; for T.I. + pyruvate: with 1mM pyruvate; for T.I. - pyruvate: without pyruvate
Description: (§1) Banked blood (Saint Louis Children’s Hospital) and fresh blood [healthy donors] was washed and stored at 50% hematocrit at 4°C up to 1 month past the clinical expiration date and collection date, respectively. Parasite strains provided by the Malaria Research and Reference Reagent Resource Center (MR4) as follows: 3D7 (MRA-102); K1 (MRA-159); D10 (MRA-201); and IPC-5202 (MRA-1240). Unless indicated, erythrocytes were cultured as previously described at 2% hematocrit in complete media (incomplete media supplemented with 27mM sodium bicarbonate, 11mM glucose, 5mM HEPES, 1mM sodium pyruvate, 0.37mM hypoxanthine, 0.01mM thymidine, 10µg/mL gentamicin, and 0.5% Albumax I (Thermo-Fisher) under 5% O2/5% CO2/90% N2 atmosphere at 37°C ([Guggisberg et al., 2014]).
(§2) Asynchronous cultures diluted to 1% parasitemia in 100μL wells were subjected to drug dilutions, solvent controls, and untreated uninfected erythrocyte controls in technical duplicates. Following a three-day incubation, DNA content was quantified using Picogreen (Life Technologies), as previously described ([Corbett et al., 2004]). Half-maximal effective concentrations (EC50) were determined from nonlinear regression of three biological replicates (GraphPad Prism).

[2] = system: human erythrocytes; experiment: Detection and quantification of MetHb formation in cultured erythrocytes; type: cell-based; conditions: Homo sapiens, Erythrocyte
Description: as §1
MetHb was detected by measuring absorbance in the 630-640nm range, which is specific from other hemoglobin subforms (oxyhemoglobin, deoxyhemoglobin, and carboxyhemoglobin). Supernatants were removed and erythrocyte pellets were fully lysed and diluted, as described above. The absorption peak for oxyhemoglobin (575nm) and MetHb (630nm) were measured and the EC50 of MetHb formation was determined using non-linear regression analysis (GraphPad Prism).

[3] = system: P. berghei ANKA; type: in vivo, Swiss Webster mice
Description: (§3) Groups of five female Swiss-Webster mice were injected intraperitoneally (i.p.) with 10^3 luciferase-expressing P. berghei ANKA parasites ([Franke-Fayard et al., 2008]). Forty-eight hours post infection, mice were injected i.p. daily for five days with either 200µL of 2% methylcellulose/0.5% Tween80, 40mg/kg chloroquine, 100mg/kg HEX, 30mg/kg POM-HEX, or 5mg/kg POM-SF. Enolase inhibitors dosing were selected as approximately 3-fold lower than the maximum acutely tolerated dose for each compound by i.p. injection. Day 7 post-infection, mice were injected with 150mg/kg D-luciferin potassium salt in PBS (GoldBio) and imaged on an IVIS 100 and parasite burden assessed (Xenogen LivingImage).
The glucose mimetic 2-DG and enolase inhibitors POM-HEX, and HEX were evaluated in the P. berghei mouse model of cerebral malarial, as previously described ([Wang et al., 2018]). Briefly, in addition to groups of mice (n = 5) dosed as described above for POM-HEX and HEX, 2-DG was administered to an additional group (n = 5) at 200mg/kg twice daily and all were monitored for survival, parasitemia (blood smear Giemsa), and clinical signs of cerebral malaria (paralysis, deviation of the head, ataxia, convulsions, and coma) over 15 days.

[4] = Pharmacokinetics of HEX in non-human primates (plasma, NMR 31P-1H HSQC); type: in vivo, cynomolgus monkeys (Macaca fascicularis)
Description: (§4) Adult male cynomolgus monkeys (Macaca fascicularis) with weight of 2.5-3.5 kg were used for PK studies (n = 1). To prepare HEX for injection, a stock solution of 150 mg/mL HEX in water with final pH of 7.2-7.4 was prepared. Just prior to injection, this stock was diluted with saline to desired concentration and filtered with 0.22 µm filter. A dose of 100 mg/Kg of HEX was injected subcutaneously in an overnight fasted monkey. Blood samples were collected at the following time points: before injection, 1 hr, 2 hrs, 4 hrs (when food was also given to a monkey), 8 hrs, and 24 hrs after injection. Also, a dose of 400 mg/Kg of HEX was administrated through oral gavage. To compare the PK studies in non-human primates with rodents, a 400 mg/kg dose of HEX was also injected subcutaneously in female mice (n = 1), and blood was collected before, 1 hr, and 2 hrs after injection. HEX concentrations in plasma were measured by using nuclear magnetic resonance (NMR) spectroscopy. Two hundred microliters of plasma were extracted with four hundred microliters of −20°C precooled methanol and incubated in −20°C for 45 minutes followed by spinning down in 4°C at 17,000 × g for 30 min to separate supernatant. The supernatant then was concentrated by speedvac for 4 hours and dissolved in 470 μL D2O (Sigma Aldrich,151882) and 30 μL D2O with 3%TPS as an internal standard (Sigma Aldrich, 450510) for NMR studies. NMR experiments were performed on Bruker Avance III HD 500 MHz spectrometer equipped with cryoprobe and Bruker 300 MHz with broad band observe probe. […] NMR spectra were analyzed using 3.1 version of TopSpin. HEX was quantified in the sample with high concentration of the drug (100 mpk, 1 hr after SC injection) by comparing integrals of HEX and TSP (reference) in 1H spectra. […]

[5] = Pharmacokinetics of HEX in mice (plasma, NMR 31P-1H HSQC); type: in vivo
Description: as §4

[6] = design: method as in Lin et al., 2020; conditions: cynomolgus monkeys, 100 mpk SC; replotted, ref Lin et al., 2020; cited from earlier work
[7] = system: P. falciparum K1 (chloroquine and sulfadoxine-pyrimethamine resistant); experiment: Plasmodium falciparum growth inhibition assay, drug-resistant line K1; type: cell-based; conditions: K1, read-out: EC50 (nM), P. falciparum K1
Description: (§5) Banked blood (Saint Louis Children’s Hospital) and fresh blood [healthy donors] was washed and stored at 50% hematocrit at 4°C up to 1 month past the clinical expiration date and collection date, respectively. Parasite strains provided by the Malaria Research and Reference Reagent Resource Center (MR4) as follows: 3D7 (MRA-102); K1 (MRA-159); D10 (MRA-201); and IPC-5202 (MRA-1240). […]
as §2, with “Prism). […]” for “Prism).”
(§6) Supplemental Table 5. […] Half-maximal inhibitor concentrations (EC50s) were determined for drug resistant malaria parasites and compared to the sensitive 3D7 strain. The respective EC50s are calculated from each of the independent biological replicates using a non-linear regression of the log of the inhibitor concentration with data from each technical replicate normalized to maximal and minimal growth using the software package GraphPad Prism. […]
(§7) means ± s.e.m calculated from three biological replicates.

[8] = system: P. falciparum D10 (mefloquine resistant); experiment: Plasmodium falciparum growth inhibition assay, drug-resistant line D10; type: cell-based; conditions: D10, read-out: EC50 (nM), P. falciparum D10
Description: as §5
as §2, with “Prism). […]” for “Prism).”
as §6, §7

[9] = system: P. falciparum IPC-5202 (chloroquine and artemisinin resistant); experiment: Plasmodium falciparum growth inhibition assay, drug-resistant line IPC-5202; type: cell-based; conditions: read-out: EC50 (nM), P. falciparum IPC-5202
Description: as §5
as §2, with “Prism). […]” for “Prism).”
as §6, §7

[10] = system: luciferase-expressing P. berghei ANKA parasites; experiment: In vivo efficacy against blood stage parasite burden (luciferase imaging); design: species or system Swiss-Webster mice; conditions: i.p. daily for five days; 30mg/kg POM-HEX, 5mg/kg POM-SF
Description: as §3

[11] = design: method as in Lin et al., 2020; conditions: ref Lin et al., 2020; cited from earlier work

Question: For `O=C1C(P(=O)(O)O)CCCN1O` (stereo not drawn) [HEX], which “S.I. + pyruvate (Supplemental Table 4)” value [1] is on record?
Answer: 27.8

Question: What about the “S.I. - pyruvate (Supplemental Table 4)” value [1] of the same compound?
Answer: 26.3

Question: And the EC50 ([1]; 3D7, read-out: Parasite EC50 - pyruvate)?
Answer: 19000 ± 1000 nM

Question: And the EC50 ([1]; 3D7, read-out: half maximal effective concentrations (EC50s), parasite growth)?
Answer: > 15000 nM

Question: What about the “S.I. Fold Change (Supplemental Table 4)” value [1] of the same compound?
Answer: 1.1

Question: And the “T.I. Fold change” value [1]?
Answer: 1.1

Question: What about the “selectivity for antiparasitic activity over erythrocyte toxicity (in words)” value ([1]; parasite growth versus MetHb formation) of the same compound?
Answer: notably selective

Question: And the “T.I. + pyruvate” value [1]?
Answer: 27.8

Question: What about the T.I. - pyruvate [1] of the same compound?
Answer: 26.3

Question: What about the EC50 ([2]; read-out: MetHb EC50 + pyruvate (Supplemental Table 4)) of the same compound?
Answer: > 500000 nM

Question: And the EC50 ([2]; read-out: MetHb EC50 - pyruvate)?
Answer: > 500000 nM

Question: And the EC50 ([2]; read-out: MetHb EC50 - pyruvate (Supplemental Table 4))?
Answer: > 500000 nM

Question: And the survival ([3]; HEX 100 mg/kg daily from day 2, Mantel-Cox)?
Answer: 14 days

Question: What about the parasitemia ([3]; d4, blood smear Giemsa, treated from day 2, HEX 100 mg/kg, 2DG 200 mg/kg, control 7.8±3.3%) of the same compound?
Answer: 3.5±1.3%

Question: What about the “clinical scores (signs of cerebral malaria)” value ([3]; d6, HEX 100 mg/kg, vehicle 15.0±7.3) of the same compound?
Answer: 3.8±2.0

Question: What about the “mice alive on day 15” value ([3]; n=5, HEX 100 mg/kg, sacrificed due to high parasitemia and elevated clinical score) of the same compound?
Answer: two mice remained alive

Question: What about the half-life ([4]; monkey, 100 mg/kg sub-cutaneous, serum/plasma, 100 mg/kg) of the same compound?
Answer: ~ 1 hr

Question: What about the “oral bioavailability (in words)” value ([4]; monkey, 400 mpk by oral gavage) of the same compound?
Answer: orally bioavailable

Question: What about the “time serum concentrations remain above the in vitro EC50 concentrations against Plasmodium” value ([4]; non-human primates, 100mg/kg sub-cutaneous) of the same compound?
Answer: at least four hours

Question: What about the “HEX concentration in plasma, 2 hr time point” value ([5]; 400 mg/kg dose SC, detection limit ~1 µM) of the same compound?
Answer: undetectable

Question: What about the serum half-life ([5]; 400mg/kg sub-cutaneous) of the same compound?
Answer: minutes

Question: What about the concentration at 1 hr ([5]; female, mouse, plasma, 400 mg/kg dose SC, read-out: HEX concentration in plasma, 1hr after injection) of the same compound?
Answer: ~170 µM

Question: And the “plasma concentrations at 1hr” value [6]?
Answer: > 500 µM

Question: What does the source list for `CC(C)(C)C(=O)OCOP(=O)(OCOC(=O)C(C)(C)C)C1CCCN(O)C1=O` (stereo not drawn) [POM-HEX]?
Answer: S.I. + pyruvate (Supplemental Table 4) [1]: 1.5; S.I. - pyruvate (Supplemental Table 4) [1]: 0.4; EC50 ([1]; 3D7, 72 h, P. falciparum growth, presence of 1mM pyruvate, mean ± s.e.m., read-out: Parasite EC50 + pyruvate): 910 ± 150 nM; EC50 ([1]; 3D7, P. falciparum growth, absence of 1mM pyruvate, mean ± s.e.m., 500 = highest concentration tested, EC50 not resolved, read-out: Parasite EC50 - pyruvate): 2900 ± 640 nM; S.I. Fold Change (Supplemental Table 4) [1]: 3.7; T.I. Fold change [1]: 3.7; T.I. + pyruvate [1]: 1.5; T.I. - pyruvate [1]: 0.4; EC50 [7]: 1110 ± 530 nM; EC50 [8]: 1430 ± 540 nM; EC50 [9]: 966 ± 442 nM; EC50 ([2]; MetHb formation, absence of 1mM pyruvate, mean ± s.e.m., 500 = highest concentration tested, EC50 not resolved, read-out: MetHb EC50 - pyruvate): 1200 ± 190 nM; EC50 ([2]; MetHb formation, presence of 1mM pyruvate, mean ± s.e.m., 500 = highest concentration tested, EC50 not resolved, read-out: MetHb EC50 + pyruvate): 1400 ± 110 nM; effect on clinical score, overall survival, cerebral malaria (in words) ([3]; 2DG 200 mg/kg, POM-HEX 30 mg/kg): no more effective than 2-DG; also recorded: does not prevent cerebral malaria; effect on parasite burden (in words) [10]: does not forestall a lethal parasite burden; conversion in mouse plasma (in words) [11]: rapidly converted to Hemi-POM-HEX
